Key:
Assay in all cases: relative viability (nuclei count vs DMSO), 5 days (fraction); higher = more cells survive
[1] = compound: C[C@@H](N)c1ccc(C(=O)Nc2ccnc3[nH]ccc23)cc1 + Cc1nc(NC(=O)N2CCC[C@H]2C(N)=O)sc1-c1ccnc(C(C)(C)C(F)(F)F)c1 [Alpelisib] (partner 2 µM)
Procedure, shortened: (§1)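 Relative viability equals treated-well nuclei counts divided by vehicle-well nuclei counts. Counts came from 4× images of lung cancer cell lines grown in 1536-well plates for 5 days after pin-tool dosing on the day after seeding. Dosing used one drug alone or a fixed anchor-drug dose plus five library-drug doses (not always all listed) in √10 steps, and values are medians of duplicate plates.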

[2] = compound: C[C@@H](N)c1ccc(C(=O)Nc2ccnc3[nH]ccc23)cc1 + O=C(CCCCCCC(=O)Nc1ccccc1)NO [Vorinostat] (partner 1 µM)
Procedure, shortened: as §1

Tanzisertib + Tozasertib = compound: O[C@H]1CC[C@H](Nc2ncc3nc(Nc4c(F)cc(F)cc4F)n([C@H]4CCOC4)c3n2)CC1 [Tanzisertib] + Cc1cc(Nc2cc(N3CCN(C)CC3)nc(Sc3ccc(NC(=O)C4CC4)cc3)n2)n[nH]1 [Tozasertib] (partner 0.1 µM)
Procedure, shortened: as §1

Tanzisertib + Dasatinib = compound: O[C@H]1CC[C@H](Nc2ncc3nc(Nc4c(F)cc(F)cc4F)n([C@H]4CCOC4)c3n2)CC1 [Tanzisertib] + Cc1nc(Nc2ncc(C(=O)Nc3c(C)cccc3Cl)s2)cc(N2CCN(CCO)CC2)n1 [Dasatinib] (partner 0.075 µM)
Procedure, shortened: as §1

Cell Line	relative viability ([1]; first compound 0.04 µM)	relative viability ([1]; first compound 0.1265 µM)	relative viability ([1]; first compound 0.4 µM)	relative viability ([1]; first compound 4 µM)	relative viability ([2]; first compound 0.04 µM)	relative viability ([2]; first compound 0.1265 µM)	relative viability ([2]; first compound 0.4 µM)	relative viability ([2]; first compound 1.265 µM)	relative viability ([2]; first compound 4 µM)	relative viability (Tanzisertib + Tozasertib; first compound 0.08 µM)	relative viability (Tanzisertib + Tozasertib; first compound 0.253 µM)	relative viability (Tanzisertib + Tozasertib; first compound 0.8 µM)	relative viability (Tanzisertib + Tozasertib; first compound 2.53 µM)	relative viability (Tanzisertib + Tozasertib; first compound 8 µM)	relative viability (Tanzisertib + Dasatinib; first compound 0.08 µM)	relative viability (Tanzisertib + Dasatinib; first compound 0.253 µM)	relative viability (Tanzisertib + Dasatinib; first compound 0.8 µM)	relative viability (Tanzisertib + Dasatinib; first compound 2.53 µM)	relative viability (Tanzisertib + Dasatinib; first compound 8 µM)	relative viability ([1]; first compound 1.265 µM)
HCC-15	0.969	0.871	0.996	0.917	0.844	0.817	0.933	0.997	0.868	0.535	0.294	0.391	0.4	0.27	0.764	0.646	0.637	0.642	0.591	
H3255	0.774	0.742	0.806	0.673	0.89	0.816	0.886	0.655	0.715	0.736	0.607	0.675	0.588	0.427	0.426	0.499	0.306	0.345	0.344	0.716
NCI-H596	0.556	0.496	0.508	0.409	0.596	0.517	0.583	0.654	0.582	1.02	0.809	0.971	1.06	0.715	0.673	0.614	0.541	0.53	0.459	0.498
NCI-H2087	0.897	0.855	0.803	0.495	0.659	0.58	0.466	0.593	0.549	0.238	0.287	0.277	0.209	0.202	0.842	0.876	0.77	0.967	0.686	0.844
NCI-H661	0.77	1.05	0.914	0.634	0.859	0.802	0.845	0.826	0.886	0.361	0.345	0.331	0.35	0.359	1.01	0.867	0.971	0.785	0.868	0.157
EMC-BAC-2	0.772	0.723	0.696	0.54	0.314	0.526	0.427	0.341	0.395	0.268	0.275	0.262	0.277	0.277	0.315	0.321	0.328	0.351	0.299	0.74
NCI-H1355	0.885	0.833	0.919	0.746	0.663	0.626	0.686	0.583	0.57	0.526	0.562	0.576	0.528	0.405	0.757	0.757	0.78	0.628	0.707	
NCI-H23	0.802	0.766	0.883	0.608	0.638	0.577	0.846		0.658	0.369	0.362	0.306	0.29	0.293	0.918	0.814	0.726	0.694	0.51	
NCI-H1651	1.06	0.942	1.01	1.06	0.603	0.526	0.647	0.586	0.561	0.711	0.707	0.637	0.689	0.557	0.378	0.522	0.378	0.336	0.417	1.14
NCI-H1975	0.692	0.593	0.553	0.534	0.734	0.649	0.667	0.609	0.584	0.845	0.762	0.838	0.668	0.458	0.421	0.446	0.365	0.356	0.329	0.617
COR-L23	0.699	0.788	0.921	0.381	0.51	0.486	0.479	0.417	0.212	0.201	0.228	0.184	0.189	0.121	0.527	0.473	0.491	0.494	0.396	0.801
LOU-NH91	0.684	0.764	0.671	0.613	0.754	0.791	0.885	0.625	0.725	0.778	0.683	0.681	0.652	0.596	0.597	0.585	0.564	0.515	0.391	0.609
NCI-H441	0.715	0.602	0.641	0.919	0.946	0.827	1.03	0.739	0.835	0.568	0.71	0.512	0.422	0.698	0.625	0.499	0.605	0.479	0.521	0.669
NCI-H647	1.32	1.08	0.962	0.928	0.472	0.623	0.551	0.613	0.463	0.283	0.269	0.281	0.388	0.226	0.226	0.201	0.142	0.189	0.149	0.96
NCI-H1915	1.12	1.06	1.06	0.873		0.546	0.547		0.462	0.401	0.457	0.373	0.384	0.322	0.319	0.316	0.321	0.301	0.283	
NCI-H1734	0.747	0.638	0.622	0.487	0.701	0.791	0.823	0.576	0.806	0.267	0.282	0.254	0.251	0.236	0.47	0.449	0.459	0.473	0.444	
NCI-H1993	0.693	0.694		0.685	0.772	1.02		0.811	0.718	0.614	0.593	0.592	0.617	0.548	0.631	0.656	0.709	0.526	0.479	0.718
LK-2	1.3	1.02	1.17	0.83	0.198	0.275	0.222	0.17	0.302	0.164	0.18	0.17	0.163	0.169	0.281	0.287	0.318	0.28	0.207	
HCC-78	0.505	0.354	0.483	0.33	0.533	0.425	0.622	0.706	0.618	0.493	0.392	0.422	0.389	0.329	0.469	0.54	0.3	0.325	0.255	0.577
NCI-H2405		0.783	0.536	0.217		1.09	1.02	0.699	0.404	0.784	0.744	0.844	0.823	0.73	0.228	0.225	0.195	0.227	0.188	0.413
HOP-62	0.761	0.825	0.793	0.805	0.715	0.541	0.602	0.179	0.555	0.428	0.433	0.356	0.382	0.375	0.733	0.654	0.659	0.644	0.569	0.705
NCI-H650	1.19	1.15	1.06	0.841		0.507	0.325		0.381	0.761	0.796	0.776	0.768	0.65	0.44	0.463	0.443	0.47	0.309	
NCI-H358	0.846	0.739	0.821	0.73	0.692	0.781	0.784	0.642	0.614	0.119	0.0917	0.106	0.107	0.117	0.185	0.159	0.164	0.151	0.131	0.767
BEN	1.07	0.995	1.09	0.731	0.592	0.573	0.589	0.585	0.587	0.464	0.451	0.621	0.418	0.407	0.306	0.374	0.442	0.355	0.32	1.25
SW 1573	0.852	0.984	0.832	0.509	0.652	0.669	0.638	0.428	0.592	0.174	0.185	0.151	0.204	0.139	0.595	0.662	0.46	0.552	0.513	0.563
SK-MES-1	1	0.986	1.01	0.834	1.04	1.05	1.11	1.2	1.17	0.971	0.889	0.991	0.951	0.992	0.39	0.35	0.337	0.32	0.212	0.786
NCI-H1755	0.935	0.899	0.886	0.635	0.672	0.737	0.75	0.811	0.826	0.58	0.618	0.561	0.582	0.533	0.408	0.46	0.488	0.464	0.333	0.856

From the supplement of paper PMC10307832
